From paper PMC12380353, “MK-8527 is a novel inhibitor of HIV-1 reverse transcriptase translocation with potential for extended-duration dosing” (PLOS Biology, 2025) come the findings set out here.

“And” between values parts separate entries of the source, which are not always exact repeats. Identical values can stand only once.

A short description of series [1]: Uptake and phosphorylation assay in PBMCs. The class given is in vitro ADME, human. Particulars: PBMCs incubated with 0.21 nM MK-8527. On the procedure:
To determine the amount of MK-8527 phosphorylated forms produced after treatment of PBMCs, uptake and phosphorylation assays were performed. PBMCs were activated with 5 µg/mL PHA in RPMI 1640, 10% FBS, 100 units/mL penicillin, and 100 µg/mL streptomycin at 1.2 × 10^6 cells/mL. All incubations were in a humidified incubator at 37 °C and with 5% CO2. After 3–4 days in culture, media containing PHA were removed by centrifugation at 300g for 10 min. Cells were resuspended at 2 × 10^6 cells/mL in RPMI 1,640, 10% NHS, 100 units/mL penicillin, 100 µg/mL streptomycin, and 20 units/mL IL-2. A total of 7.5 × 10^6 to 2 × 10^7 cells were transferred to a miniature bioreactor tube. […]
The intracellular concentration of MK-8527-TP was determined by an LC–MS/MS assay. […] Quantification was performed by monitoring the transitions of m/z 548.9 to 169.1 for MK-8527-TP. […] The method’s lower limit of quantification was between 1 and 5 nM depending on the assay volumes of cell suspension. Analyte concentrations in cell samples across species were determined from the standard curves using linear regression with 1/×2 weighting.
Concentrations of intracellular phosphorylated forms were expressed in picomoles per 10^6 cells by using the molar concentration of each compound as determined by LC–MS/MS and the number of viable cells included in each 100-µL sample.

A short description of series [2]: MK-8527-TP in PBMCs of rhesus monkeys after oral dosing. The class given is in vivo. Particulars: oral MK-8527 50 mg/kg. On the procedure: The intracellular concentration of MK-8527-TP was determined by an LC–MS/MS assay. LC–MS/MS analysis was performed on a Acquity UPLC system (Waters Corporation; Milford, MA, USA) interfaced to an API-5500 mass spectrometer using a TurboIonSpray source (Sciex, Framingham, MA, USA) in positive ionization mode. Separation of MK-8527-TP was achieved on a BioBasic AX column (2.1 × 100 mm, 5 µm; Thermo Fisher Scientific) at 45 °C using gradient elution with mobile phases consisting of 70% water to 30% acetonitrile containing 10 mM ammonium acetate (solvent A) and 70% water to 30% acetonitrile containing 20 mM ammonium acetate, 1.5% ammonium hydroxide (NH4OH) (v/v), and 10% isopropyl alcohol (IPA) (v/v) (solvent B) at a flow rate of 0.75 mL/min. The chromatography was run as follows: The column was equilibrated with 97% A, and after sample injection 97% A was maintained for 0.10 min before concentration was increased linearly to 100% B until 3.00 min, followed by a hold at 100% B until 3.50 min. The column was then washed by alternating linear ramps from 97% A to 100% B up to 4.10 min, then returned to the initial conditions at 4.30 min and kept for an additional 1.20 min. The total run time was 5.50 min. Quantification was performed by monitoring the transitions of m/z 548.9 to 169.1 for MK-8527-TP. The method was linear across a concentration range of 1–5,000 nM in cell samples across species. The method’s lower limit of quantification was between 1 and 5 nM depending on the assay volumes of cell suspension. Analyte concentrations in cell samples across species were determined from the standard curves using linear regression with 1/×2 weighting.
PBMCs were isolated from heparinized monkey blood using the following protocol. To begin, blood samples (approximately 12–18 mL) were diluted with an equal volume of calcium- and magnesium-free PBS at pH 7.4 and gently mixed. Separation of PBMCs from the diluted blood was achieved using 50 mL AccuSpin tubes loaded with Histopaque-1077 lymphocyte separation medium (both: Thermo Fisher Scientific). Samples were centrifuged at 800g for 15 min at room temperature. The resulting plasma/buffer supernatant was removed without disturbing the PBMC interface. Next, the PBMC interface was removed with a pipette, and the cells were washed by the addition of calcium- and magnesium-free PBS (pH 7.4) to a final volume of 15 mL. PBMCs were harvested by centrifugation at 250g for 20 min at room temperature. The supernatant was decanted with care taken not to disturb the PBMC pellet, and the wash step was repeated once (250 × g for 15 min). After the second wash, the cell pellet was resuspended in 7 mL of calcium- and magnesium-free PBS, and an aliquot was removed for cell counting. PBMCs were harvested from the remaining cell suspension by centrifugation at 250g for 15 min at room temperature. The supernatant was removed, and the cell pellet was resuspended in 0.1–0.3 mL of methanol and water at a 70:30 ratio. Cell suspensions were stored at […] prior to analysis.

For `C#C[C@]1(COP(=O)(O)OP(=O)(O)OP(=O)(O)O)O[C@@H](n2ccc3c(N)nc(Cl)nc32)C[C@@H]1O` [MK-8527-TP], the “Intracellular MK-8527-TP level by LC–MS/MS” value in series [1] was “below the limit of quantitation”. Further, the “Arithmetic Mean Concentration in PBMCs” value came out at 11.11 µM in series [2] (2 hr), 15.02 µM in series [2] (24 hr), 2.78 µM in series [2] (72 hr) and 0.66 µM in series [2] (168 hr). The “Concentration in PBMCs, individual subjects” value in series [2] (2 hr) is 18.77 µM and 6.47 µM and 11.31 µM; in series [2] (24 hr) it was 15.33 µM and 20.00 µM and 11.04 µM; in series [2] (72 hr), 5.67 µM and 2.28 µM and 1.67 µM; in series [2] (168 hr), 1.83 µM and 0.38 µM and 0.40 µM.
